Measurements published in patent publication US9499550B2 (BRISTOL-MYERS SQUIBB COMPANY, priority 2012, dated 2016).
Where two headings read alike, the source gives them in different places.

Columns and labels:
[1] = test system: HCV genotype 1a (H77 strain) replicon in HUH-7 cells; assay: HCV replicon luciferase reporter assay, genotype 1a; type: cell-based; conditions: Hepatitis C virus, Huh-7, 72 h, 3 days incubation
How it was run: (§1)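 Replicon inhibition for both genotypes was measured as Renilla luciferase signal (EnduRen, 7.5 μM final, 2 h) after 3-day, 37° C exposure of replicon-bearing HUH-7 cells in 4% FCS DMEM, 0.5% DMSO. The 1b construct carries S1179I; the 1a H77 construct carries P1496L and S2204I. Twenty-point, 3-fold dilutions were fitted four-parametrically for EC50, and CC50 was taken from multiplexed Cell Titer-Blue.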

[2] = test system: HCV genotype 1b (Con1) replicon in HUH-7 cells; assay: HCV replicon luciferase reporter assay, genotype 1b; type: cell-based; conditions: Hepatitis C virus, Huh-7, 72 h, 3 days incubation
How it was run: as §1

[3] = HCV genotype 1a replicon luciferase, read-out: LE_1a (EC50, range)
[4] = HCV genotype 1b replicon luciferase, read-out: LE_1b (EC50, range)
[5] = HCV genotype 1a replicon luciferase assay, range class, read-out: LE_1a (EC50, range)
[6] = HCV genotype 1b replicon luciferase assay, range class, read-out: LE_1b (EC50, range)
[7] = GETYPE1A, HCV genotype 1a replicon luciferase, read-out: LE_1a (EC50, range)
[8] = GETYPE1B, HCV genotype 1b replicon luciferase, read-out: LE_1b (EC50, range)

SMILES | EC50 [1, 3] | EC50 [2, 4] | other results
C[C@@H]1CC/C=C\[C@@H]2C[C@@]2(C(=O)NS(=O)(=O)C2(CF)CC2)NC(=O)[C@@H]2C[C@@H](Oc3nc4c(c5ccccc35)CCCO4)CN2C(=O)[C@@H](NC(=O)OC(C)(C)C)[C@H](C)C1 [Compound 6042, tert-butyl ((2R,6S,7R,9R,13aS,14aR,16aS,Z)-2-((2,3-dihydro-1H-pyrano[2,3-c]isoquinolin-6-yl)oxy)-14a-(((1-(fluoromethyl)cyclopropyl)sulfonyl)carbamoyl)-7,9-dimethyl-5,16-dioxo-1,2,3,5,6,7,8,9,10,11,13a,14,14a,15,16,16a-hexadecahydrocyclopropa[e]pyrrolo[1,2-a][1,4]diazacyclopentadecin-6-yl)carbamate] | 1.01 to 5 nM | 0.51 to 1 nM | 
CCCOc1cnc(O[C@@H]2C[C@H]3C(=O)N[C@]4(C(=O)NS(=O)(=O)C5(C)CC5)C[C@H]4/C=C\CC[C@@H](C)C[C@@H](C)[C@H](NC(=O)NC(C)(C)C(F)(F)F)C(=O)N3C2)c2ccccc12 [Compound 5087, (2R,6S,7R,9R,13aS,14aR,16aS,Z)-7,9-dimethyl-N-((1-methylcyclopropyl)sulfonyl)-5,16-dioxo-2-((4-propoxyisoquinolin-1-yl)oxy)-6-(3-(1,1,1-trifluoro-2-methylpropan-2-yl)ureido)-1,2,3,5,6,7,8,9,10,11,13a,14,14a,15,16,16a-hexadecahydrocyclopropa[e]pyrrolo[1,2-a][1,4]diazacyclopentadecine-14a-carboxamide] | < 5.46 nM | < 5.46 nM | 
COc1ccc2c(O[C@@H]3C[C@H]4C(=O)N[C@]5(C(=O)NS(=O)(=O)C6(C)CC6)C[C@H]5/C=C\CC[C@H](C)C[C@@H](C)[C@H](NC(=O)NC(C)(C)C)C(=O)N4C3)nccc2c1 [Compound 5178, (2R,6S,7R,9S,13aS,14aR,16aS,Z)-6-(3-(tert-butyl)ureido)-2-((6-methoxyisoquinolin-1-yl)oxy)-7,9-dimethyl-N-((1-methylcyclopropyl)sulfonyl)-5,16-dioxo-1,2,3,5,6,7,8,9,10,11,13a,14,14a,15,16,16a-hexadecahydrocyclopropa[e]pyrrolo[1,2-a][1,4]diazacyclopentadecine-14a-carboxamide] | 4.82 to 103 nM | < 5.46 nM | 
C[C@@H]1CC/C=C\[C@@H]2C[C@@]2(C(=O)NS(=O)(=O)C2CC2)NC(=O)C2C[C@@H](Oc3nc4ccccc4c4ccccc34)CN2C(=O)[C@@H](NC(=O)OC(C)(C)C(F)(F)F)[C@H](C)C1 (stereo partly drawn) [Compound 5185, 1,1,1-trifluoro-2-methylpropan-2-yl((2R,6S,7R,9R,13aS,14aR,16aS,Z)-14a-((cyclopropylsulfonyl)carbamoyl)-7,9-dimethyl-5,16-dioxo-2-(phenanthridin-6-yloxy)-1,2,3,5,6,7,8,9,10,11,13a,14,14a,15,16,16a-hexadecahydrocyclopropa[e]pyrrolo[1,2-a][1,4]diazacyclopentadecin-6-yl)carbamate] | < 5.46 nM | < 5.46 nM | 
COc1ccc2c(O[C@@H]3C[C@H]4C(=O)N[C@]5(C(=O)NS(=O)(=O)C6(C)CC6)C[C@H]5/C=C\CC[C@H](C)C[C@@H](C)[C@H](NC(=O)OCC5(C)CC5)C(=O)N4C3)nc(N3CCOCC3)cc2c1 [Compound 3090, (1-methylcyclopropyl)methyl ((2R,6S,7R,9S,13aS,14aR,16aS,Z)-2-((6-methoxy-3-morpholinoisoquinolin-1-yl)oxy)-7,9-dimethyl-14a-(((1-methylcyclopropyl)sulfonyl)carbamoyl)-5,16-dioxo-1,2,3,5,6,7,8,9,10,11,13a,14,14a,15,16,16a-hexadecahydrocyclopropa[e]pyrrolo[1,2-a][1,4]diazacyclopentadecin-6-yl)carbamate] |  |  | EC50 [1, 5]: 4.82 to 103 nM; EC50 [2, 6]: < 5.46 nM
CCCOc1cnc(O[C@@H]2C[C@H]3C(=O)N[C@]4(C(=O)NS(=O)(=O)C5(C)CC5)C[C@H]4/C=C\CC[C@H](C)C[C@@H](C)[C@H](NC(=O)NC(C)(C)C(F)(F)F)C(=O)N3C2)c2ccccc12 [Compound 5086, (2R,6S,7R,9S,13aS,14aR,16aS,Z)-7,9-dimethyl-N-((1-methylcyclopropyl)sulfonyl)-5,16-dioxo-2-((4-propoxyisoquinolin-1-yl)oxy)-6-(3-(1,1,1-trifluoro-2-methylpropan-2-yl)ureido)-1,2,3,5,6,7,8,9,10,11,13a,14,14a,15,16,16a-hexadecahydrocyclopropa[e]pyrrolo[1,2-a][1,4]diazacyclopentadecine-14a-carboxamide] | > 87.4 nM | > 87.4 nM | EC50 ([1]; HCV genotype 1a replicon luciferase, read-out: LE_1a (EC50)): 411 nM; EC50 ([2]; HCV genotype 1b replicon luciferase, read-out: LE_1b (EC50)): 155 nM
COc1cnc(O[C@@H]2C[C@H]3C(=O)N[C@]4(C(=O)NS(=O)(=O)C5(F)CC5)C[C@H]4/C=C\CC[C@@H](C)C[C@@H](C)[C@H](NC(=O)OCC(C)(C)C)C(=O)N3C2)c2cc(F)ccc12 [Compound 4047, neopentyl (2R,6S,7R,9R,13aS,14aR,16aS,Z)-2-(7-fluoro-4-methoxyisoquinolin-1-yloxy)-14a-(1-fluorocyclopropylsulfonylcarbamoyl)-7,9-dimethyl-5,16-dioxo-1,2,3,5,6,7,8,9,10,11,13a,14,14a,15,16,16a-hexadecahydrocyclopropa[e]pyrrolo[1,2-a][1,4]diazacyclopentadecin-6-ylcarbamate] | < 5.46 nM | < 5.46 nM | 
COc1ccc2c(O[C@@H]3C[C@H]4C(=O)N[C@]5(C(=O)NS(=O)(=O)C6(C)CC6)C[C@H]5/C=C\CC[C@@H](C)C[C@@H](C)[C@H](NC(=O)OC(C)(C)C(C)(F)F)C(=O)N4C3)nc(-c3ccc(OC(C)C)cn3)cc2c1 [Compound 5477, 3,3-difluoro-2-methylbutan-2-yl((2R,6S,7R,9R,13aS,14aR,16aS,Z)-2-((3-(5-isopropoxypyridin-2-yl)-6-methoxyisoquinolin-1-yl)oxy)-7,9-dimethyl-14a-(((1-methylcyclopropyl)sulfonyl)carbamoyl)-5,16-dioxo-1,2,3,5,6,7,8,9,10,11,13a,14,14a,15,16,16a-hexadecahydrocyclopropa[e]pyrrolo[1,2-a][1,4]diazacyclopentadecin-6-yl)carbamate] | 1.01 to 5 nM | 1.01 to 5 nM | 
COc1ccc2c(Cl)ncc(O[C@@H]3C[C@H]4C(=O)N[C@]5(C(=O)NS(=O)(=O)C6(CF)CC6)C[C@H]5/C=C\CC[C@@H](C)C[C@@H](C)[C@H](NC(=O)OC(C)(C)C)C(=O)N4C3)c2c1 [Compound 4380] | 1.01 to 5 nM | 1.01 to 5 nM | 
COc1cc2ccnc(O[C@@H]3C[C@H]4C(=O)N[C@]5(C(=O)NS(=O)(=O)C6(CF)CC6)C[C@H]5/C=C\CC[C@@H](C)C[C@@H](C)[C@H](NC(=O)c5ccccc5C(F)(F)F)C(=O)N4C3)c2cc1F [Compound 4096, (2R,6S,7R,9R,13aS,14aR,16aS,Z)-2-(7-fluoro-6-methoxyisoquinolin-1-yloxy)-N-(1-(fluoromethyl)cyclopropylsulfonyl)-7,9-dimethyl-5,16-dioxo-6-(2-(trifluoromethyl)benzamido)-1,2,3,5,6,7,8,9,10,11,13a,14,14a,15,16,16a-hexadecahydrocyclopropa[e]pyrrolo[1,2-a][1,4]diazacyclopentadecine-14a-carboxamide] | < 5.46 nM | < 5.46 nM | 
CC[C@@H]1C[C@H](C)CC/C=C\[C@@H]2C[C@@]2(C(=O)NS(=O)(=O)C2(C)CC2)NC(=O)[C@@H]2C[C@@H](Oc3nc(OC)cc4cc(OC)c(F)cc34)CN2C(=O)[C@H]1NC(=O)OC(C)(C)C(C)(F)F [Compound 1188] |  |  | EC50 [1, 7]: 1.01 to 5 nM; EC50 [2, 8]: 0.51 to 1 nM
COc1ccc2c(O[C@@H]3C[C@H]4C(=O)N[C@]5(C(=O)NS(=O)(=O)C6(C)CC6)C[C@H]5/C=C\CC[C@@H](C)C[C@@H](C)[C@H](NC(=O)OCC5(C)CC5)C(=O)N4C3)nc(-c3ccc(F)cc3)cc2c1 [Compound 3085, (1-methylcyclopropyl)methyl ((2R,6S,7R,9R,13aS,14aR,16aS,Z)-2-((3-(4-fluorophenyl)-6-methoxyisoquinolin-1-yl)oxy)-7,9-dimethyl-14a-(((1-methylcyclopropyl)sulfonyl)carbamoyl)-5,16-dioxo-1,2,3,5,6,7,8,9,10,11,13a,14,14a,15,16,16a-hexadecahydrocyclopropa[e]pyrrolo[1,2-a][1,4]diazacyclopentadecin-6-yl)carbamate] |  |  | EC50 [1, 5]: < 5.46 nM; EC50 [2, 6]: < 5.46 nM
COc1ccc2nc(O[C@@H]3C[C@H]4C(=O)N[C@]5(C(=O)NS(=O)(=O)C6(C)CC6)C[C@H]5/C=C\CC[C@@H](C)C[C@@H](C)[C@H](NC(=O)OC(C)(C)C(F)(F)F)C(=O)N4C3)c(-c3ccc(OC(C)C)cc3)nc2c1 [Compound 4261] |  |  | EC50 [1, 7]: 5.01 to 35 nM; EC50 [2, 8]: 1.01 to 5 nM
